Experiments:
Format in all cases: cell-based
T47D cells [1] = assay: Flow cytometric analysis of Annexin V/7-AAD stained T47D cells; details: 6 days
Method: ER^+ breast cancer T47D cells were treated with DMSO, palbociclib, heterobifunctional compound CPD-343, or negative control compound CPD-380 for 6 days at doses approximating IC50 and IC90 concentrations determined in FIGS. 10A and 13. Cells were harvested by trypsinization, staining was carried out using the Annexin V Apoptosis Detection Kit. The percentages of early apoptotic (Annexin V^+7-AAD^−, lower right quadrant), late apoptotic (Annexin V^+7-AAD^+, upper right quadrant) and necrotic cells (Annexin V-7-AAD^+, upper left quadrant) are indicated on dot plots. […] Furthermore, we developed one ER^+ breast cancer T47D model with acquired resistance after long period of treatment with 1 μM palbociclib (over IC90). Cells were deemed resistant when growing in the presence of palbo at the same rate as parental cells. Palbo resistance was determined by CellTiter-Lumi cell viability assay.

[2] = tested on: T47D palbo-resistant model; assay: CellTiter-Lumi cell viability in T47D palbociclib-resistant model; details: 6 days; resistance acquired under 1 μM palbociclib
Method: Furthermore, we developed one ER^+ breast cancer T47D model with acquired resistance after long period of treatment with 1 μM palbociclib (over IC90). […] Palbo resistance was determined by CellTiter-Lumi cell viability assay.

cyclin D1 = assay: Cyclin D1 percentage degradation in Calu-1 cells (immunoblotting); details: 200 nM, 16 hours
Outline: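 Cells were rinsed once in cold PBS and lysed in cold RIPA buffer containing protease and phosphatase inhibitors, with gentle agitation at 4° C. for 30 min. Lysates were spun at 13,000 rpm for 10 min at 4° C., protein was measured by BCA, and samples were boiled in Laemmli buffer at 99° C. for 5 min before SDS-PAGE immunoblotting.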

CDK4 = target: T1, CDK4 (Homo sapiens, UniProt P11802); assay: CDK4 percentage degradation in Calu-1 cells (immunoblotting); details: Calu-1 cells, 200 nM, 16 hours; read-out: CDK4 Degradation (200 nM)
T1 construct: endogenous in cells; host or cells: Calu-1
Outline: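 Cultured cells were rinsed once in cold PBS and lysed in cold RIPA buffer containing protease and phosphatase inhibitors, with gentle agitation at 4° C. for 30 min. Lysates were centrifuged at 13,000 rpm for 10 min at 4° C., and protein was quantified by BCA. Samples were then separated by SDS-PAGE, detected with ECL, and the CDK4 bands quantified in Image Lab.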

T47D cells [3] = assay: Annexin V apoptosis flow cytometry in T47D cells; details: 6 days
Method: T47D cells were treated with DMSO, palbociclib, heterobifunctional compound CPD-343, or negative control compound CPD-380 for 6 days at doses approximating IC50 and IC90 concentrations as indicated. Cells were harvested by trypsinization, staining was carried out using the Annexin V Apoptosis Detection Kit.
Assays were performed on the CytoFLEX Cytometer (Beckman Coulter), and data were analyzed using CytExpert software. For cell death and apoptosis analysis, cells were harvested by trypsinization, staining was carried out using the Annexin V Apoptosis Detection Kit (BD Biosciences). Briefly, cells were resuspended in 1× binding buffer and incubated with fluorochrome-conjugated Annexin V and 7-AAD for 15 min in darkness at room temperature.

[4] = tested on: T47D palbo-resistant cells; assay: Cell viability in T47D palbo-resistant model; details: 10-point serial dilution, 6 days
Method: T47D cells were cultured long-term to resistance in the presence of 1 μM Palbocicilib. Palbo resistance was determined by CellTiter-Lumi cell viability assay. T47D parental or palbo-resistant cells were treated with palbociclib, or heterobifunctional compound CPD-343 following a 10-point serial dilution for 6 days.
Calu-1, T47D, MCF7, NCI-H522, BT-549, MDA-MB-157, MDA-MB-453, MDA-MB-468, Hs578T, KURAMOCHI, OVCAR3, MIA PaCa-2, Cal-62, LNCaP, NCI-H1703, MM.1R, Daudi, SU-DHL-4, MDA-MB-231 and other cells were cultured at 37° C. with 5% CO2 in RPMI 1640 or DMEM medium supplemented with 10% fetal bovine serum. Cells were authenticated using the short tandem repeat (STR) assays. Mycoplasma test results were negative. Cell transfection was performed using PEI or Lipofectamine 2000 (Invitrogen) following the manufacturer's instructions. […]
Cells were seeded at a density of 2,000-5,000 cells per well in 96-well assay plates and treated with test compounds following a 10-point serial dilution for 3-6 days. Cell viability was determined using the CellTiter-Lumi assay kit according to the manufacturer's instructions. The dose-response curves were determined and IC50 values were calculated using the GraphPad Prism software following a nonlinear regression (least squares fit) method. […]

BRD4 [5] = target: T2, BRD4 (Homo sapiens, UniProt O60885); assay: Immunoblot of BRD4 protein levels in Daudi, SU-DHL-4 or MDA-MB-231 cells; details: SU-DHL-4 or MDA-MB-231 cell lines, 8 hours, dose range
T2 construct: endogenous in cells; host or cells: Daudi, SU-DHL-4, MDA-MB-231
Text: Additional exemplary heterobifunctional compounds were designed to modulate the protein levels of either P300/CBP, or BRD4, and characterized in multiple cell lines. […] Taken together, DDB1 ligands conjugating with different target ligands may modulate the cellular target protein levels of cyclin D, CDK4/6, P300/CBP and BRD4.

BRD4 [6] = target: T2, BRD4; assay: Immunoblotting of BRD4 protein levels in multiple cell lines; details: Daudi, SU-DHL-4, or MDA-MB-231 cells, 8 hours
Method: Daudi, SU-DHL-4, or MDA-MB-231 cells were treated with CPD-253 at indicated concentrations for 8 hours.
Cultured cells were washed with cold PBS once and lysed in cold RIPA buffer supplemented with protease inhibitors and phosphatase inhibitors (Beyotime Biotechnology). The solutions were then incubated at 4° C. for 30 min with gentle agitation to fully lysed cells. Cell lysates were centrifuged at 13,000 rpm for 10 min at 4° C. and pellets were discarded. Total protein concentrations in the lysates were determined following BCA assays (Beyotime Biotechnology). Cell lysates were mixed with Laemmli loading buffer and heated at 99° C. for 5 min. Proteins were resolved on SDS-PAGE and visualized using Western ECL Substrate kits on a ChemiDoc MP Imaging system (Bio-Rad). Protein bands were quantitated using the Image Lab software provided by Bio-Rad.

T1 sequence (P11802 2-303 limits assumed): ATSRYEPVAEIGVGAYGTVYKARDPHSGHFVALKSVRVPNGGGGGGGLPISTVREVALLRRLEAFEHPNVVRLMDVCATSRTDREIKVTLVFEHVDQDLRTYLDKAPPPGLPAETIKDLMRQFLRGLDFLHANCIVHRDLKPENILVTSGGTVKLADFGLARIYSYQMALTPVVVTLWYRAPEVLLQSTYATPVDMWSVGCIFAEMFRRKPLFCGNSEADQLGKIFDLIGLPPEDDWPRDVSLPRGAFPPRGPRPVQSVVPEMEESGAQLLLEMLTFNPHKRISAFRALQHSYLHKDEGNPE
T1 sequence (P24385 whole entry partner): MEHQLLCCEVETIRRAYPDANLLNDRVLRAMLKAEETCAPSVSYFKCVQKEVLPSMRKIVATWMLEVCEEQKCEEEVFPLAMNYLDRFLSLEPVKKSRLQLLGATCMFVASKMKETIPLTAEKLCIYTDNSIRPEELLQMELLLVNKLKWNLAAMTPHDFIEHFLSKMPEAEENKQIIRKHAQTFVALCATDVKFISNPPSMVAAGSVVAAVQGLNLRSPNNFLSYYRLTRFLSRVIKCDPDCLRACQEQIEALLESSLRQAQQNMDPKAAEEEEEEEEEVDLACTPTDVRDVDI
T1 sequence (Q16531 2-1140 limits assumed, further chain): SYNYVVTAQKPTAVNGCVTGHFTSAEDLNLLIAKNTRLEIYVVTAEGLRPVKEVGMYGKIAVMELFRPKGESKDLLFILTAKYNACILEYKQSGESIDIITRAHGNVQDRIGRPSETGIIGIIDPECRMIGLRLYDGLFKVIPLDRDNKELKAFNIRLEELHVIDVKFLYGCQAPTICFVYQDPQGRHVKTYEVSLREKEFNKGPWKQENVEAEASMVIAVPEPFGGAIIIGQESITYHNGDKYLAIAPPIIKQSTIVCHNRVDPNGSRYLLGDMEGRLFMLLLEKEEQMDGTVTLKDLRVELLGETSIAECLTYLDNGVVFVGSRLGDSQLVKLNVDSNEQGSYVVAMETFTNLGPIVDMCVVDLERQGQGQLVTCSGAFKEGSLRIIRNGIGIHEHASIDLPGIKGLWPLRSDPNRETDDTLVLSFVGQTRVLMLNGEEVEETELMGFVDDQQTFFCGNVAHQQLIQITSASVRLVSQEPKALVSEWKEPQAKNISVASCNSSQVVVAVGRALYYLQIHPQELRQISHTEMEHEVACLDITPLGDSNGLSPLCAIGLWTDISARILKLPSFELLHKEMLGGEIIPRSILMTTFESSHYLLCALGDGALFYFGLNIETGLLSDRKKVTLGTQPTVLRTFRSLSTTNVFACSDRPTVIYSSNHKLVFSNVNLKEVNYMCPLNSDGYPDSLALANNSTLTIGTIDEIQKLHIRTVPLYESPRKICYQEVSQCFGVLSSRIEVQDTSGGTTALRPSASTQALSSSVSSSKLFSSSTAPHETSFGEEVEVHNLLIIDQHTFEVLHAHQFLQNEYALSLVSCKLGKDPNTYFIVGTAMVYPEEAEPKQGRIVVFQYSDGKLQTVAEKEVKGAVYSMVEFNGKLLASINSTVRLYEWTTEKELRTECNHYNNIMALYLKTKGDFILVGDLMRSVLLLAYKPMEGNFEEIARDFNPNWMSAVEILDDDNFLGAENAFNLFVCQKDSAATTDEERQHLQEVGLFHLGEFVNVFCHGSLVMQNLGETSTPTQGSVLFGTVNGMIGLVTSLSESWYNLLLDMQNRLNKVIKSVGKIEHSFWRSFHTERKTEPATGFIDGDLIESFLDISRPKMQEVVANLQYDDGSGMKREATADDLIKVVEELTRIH

Row | inhibition at 0.2 µM (CDK4) [%] | reduction of BRD4 protein levels (BRD4 [5]) | SMILES | Annexin V+ population (T47D cells [1]; 10 nM) [%] | Annexin V+ population (T47D cells [1]; 200 nM) [%] | activity in T47D palbo-resistant model compared to parental cells [2] | CyclinD1 Degradation (200 nM) (cyclin D1) | Annexin V+ population (T47D cells [3]; 10 nM) [%] | Annexin V+ population (T47D cells [3]; 200 nM) [%] | cell viability in T47D palbo-resistant model [4] | BRD4 protein levels (BRD4 [6])
1 | > 80 | – | CNc1ccc(C(=O)Nc2ccc(OC)nn2)c(NC(=O)CCOCCOCCNC(=O)CN2CCN(c3ccc(Nc4ncc5c(C)c(C(C)=O)c(=O)n(C6CCCC6)c5n4)nc3)CC2)c1 [CPD-343, 2-(3-(2-(2-(2-(4-(6-((6-Acetyl-8-cyclopentyl-5-methyl-7-oxo-7,8-dihydropyrido[2,3-d]pyrimidin-2-yl)amino)pyridin-3-yl)piperazin-1-yl)acetamido)ethoxy)ethoxy)propanamido)-N-(6-methoxypyridazin-3-yl)-4-(methylamino)benzamide] | 26.9 | 52.6 | remain effective | A (protein percentage degradation >=80%) | 26.9 | 52.6 | remained effective in T47D palbo-resistant model | –
2 | – | dramatically reduce | Cc1nc(NC(=O)c2ccccc2NC(=O)CCCCCCCCCCCNCCNC(=O)C[C@@H]2N=C(c3ccc(Cl)cc3)c3c(sc(C)c3C)-n3c(C)nnc32)sc1C [CPD-253, (S)-2-(12-((2-(2-(4-(4-Chlorophenyl)-2,3,9-trimethyl-6H-thieno[3,2-f][1,2,4]triazolo[4,3-a][1,4]diazepin-6-yl)acetamido)ethyl)amino)dodecanamido)-N-(4,5-dimethylthiazol-2-yl)benzamide] | – | – | – | – | – | – | – | reduced BRD4 protein levels in a concentration-dependent manner

Source: patent publication US20250235543A1, “MODIFIED PROTEINS AND PROTEIN DEGRADERS” (Cullgen (Shanghai), Inc., priority 2021, published 2025)
